Results published in patent US11530244B2, “Cyclic polypeptides for PCSK9 inhibition” (priority 2018, dated 2022).
Counter-ions that a name gives are not always drawn. Starred links: 1 amine or outer side, 2 acyl side, 3 side chain; linkers in the order of their positions; H or OH if unused. Positions of bridges follow the written chain, without caps; N, C: chain ends. Non-standard residues stand in square brackets, D forms with d. Residues, ends and D or L forms follow the SMILES beside them. *: point of attachment. X32 = O=C(CCc1cccc2c1oc1c(CCN[*:1])cccc12)[*:2]; Trp(5-F) = N[C@@H](Cc1c[nH]c2ccc(F)cc12)C(=O)O; X45 = O=C(CCC(=O)[*:1])NCc1ccc(CCN[*:2])cc1; Pro(cis-4-F) = O=C(O)[C@@H]1C[C@H](F)CN1; Propanoyl(3,3,3-F3) = O=C(CC(F)(F)F)*; mXylylene = c1cc(C[*:1])cc(C[*:2])c1; AEF = NCCOc1ccc(C[C@H](N)C(=O)O)cc1; X46 = O=C(C[*:2])NCCCCC(=O)[*:1]; aThr = C[C@H](O)[C@H](N)C(=O)O; αMeP = C[C@@]1(C(=O)O)CCCN1; Isobutyryl = CC(C)C(=O)*; Piv = CC(C)(C)C(=O)*; Propionyl = CCC(=O)*; Tfa = O=C(C(F)(F)F)*; X28 = CC(C)(F)C(=O)*; Glycolyl = O=C(CO)*; Mpa = O=C(O)CCS

Key:
[1] = target: T1, PCSK9 (Homo sapiens (Human), UniProt Q8NBP7); test: PCSK9 Alexa FRET Standard assay (displacement of AlexaFluor647 tagged cyclic peptide Reagent A); format: binding; conditions: 0.5 nM PCSK9, 20 nM AF cyclic peptide Reagent A
Outline: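 TR-FRET displacement: 0.5 nM biotinylated PCSK9 with 1.25 nM Strep-Eu and 20 nM AlexaFluor-tagged cyclic peptide (final) in 50 mM HEPES pH 7.4, 0.15 M NaCl, 5 mM CaCl2, 0.01% BSA, 0.01% P20, ≥2 h at room temperature. IC50 from sigmoidal fit, converted to Ki via peptide KD; falling Eu counts flagged false positives.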

[2] = target: T1, PCSK9; test: PCSK9 Alexa FRET Plus assay (displacement of AlexaFluor647 tagged cyclic peptide Reagent B); format: binding; conditions: 0.5 nM PCSK9, 960 nM AF cyclic peptide Reagent B
Description: A solution containing 1 nM biotinylated PCSK9+2.5 nM Lance Streptavidin Europium (Strep-Eu) was made in 50 mM HEPES pH 7.4, 0.15 M NaCl, 5 mM CaCl2), 0.01% BSA, and 0.01% Surfactant P20. A separate solution containing 1920 nM of the AlexaFluor tagged cyclic peptide was made in the same buffer system. An Echo was used to transfer 0.075 ul of compound plus 0.675 ul of DMSO to each well of an assay plate followed by the addition of 15 ul of PCSK9+Stept-Eu and 15 ul of AF peptide. The final assay volume was 30.750 ul containing 0.5 nM PCSK9, 1.25 nM Strep-Eu, and 960 nM AF cyclic peptide. The reaction was incubated at room temperature for at least two hours prior to fluorescence measurements using an Envision Multilabel Reader. IC50 values were determined by fitting data to a sigmoidal dose-response curve using nonlinear regression. Ki was then calculated from the IC50 and the KD of AF cyclic peptide. Counts (B-counts) of the europium-labeled PCSK9 were followed to observe if compounds were adversely affecting PCSK9. A fall off of the B-counts likely indicated a false positive of inhibition. Data from this procedure was reported as “P=‘numerical value’ (nanomolar)”

[3] = PCSK9 Alexa FRET Standard assay, read-out: IC50
[4] = Alexa FRET Plus, read-out: IC50
[5] = IC50, PCSK9 Alexa FRET Standard assay

T1 sequence (Q8NBP7 153-692): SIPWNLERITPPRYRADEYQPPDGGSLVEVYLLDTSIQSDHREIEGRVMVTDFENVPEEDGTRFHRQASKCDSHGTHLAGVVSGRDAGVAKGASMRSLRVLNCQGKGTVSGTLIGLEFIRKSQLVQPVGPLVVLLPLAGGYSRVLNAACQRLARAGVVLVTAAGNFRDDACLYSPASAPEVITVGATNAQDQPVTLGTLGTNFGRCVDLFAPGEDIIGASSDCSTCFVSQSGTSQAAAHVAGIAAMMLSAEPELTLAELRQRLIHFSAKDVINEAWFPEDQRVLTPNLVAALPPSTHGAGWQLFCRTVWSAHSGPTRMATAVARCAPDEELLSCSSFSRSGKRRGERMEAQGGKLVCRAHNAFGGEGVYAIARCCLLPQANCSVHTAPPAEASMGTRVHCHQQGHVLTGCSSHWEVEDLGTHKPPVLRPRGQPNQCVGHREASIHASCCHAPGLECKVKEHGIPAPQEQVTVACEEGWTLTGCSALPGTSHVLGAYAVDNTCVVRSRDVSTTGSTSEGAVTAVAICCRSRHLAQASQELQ

| Structure (SMILES) | IC50 [1, 3] [nM] | IC50 [2, 4] [nM] | IC50 ([2]; IC50, Alexa FRET Plus) [nM] | IC50 [1, 5] [nM] |
| --- | --- | --- | --- | --- |
| C[C@@]12CCCN1C(=O)[C@H](Cc1ccc(O)cc1)NC(=O)CN1C(=O)[C@@H](CCc3ccccc31)NC(=O)[C@H](Cc1c[nH]c3ccc(F)cc13)NC(=O)[C@H](Cc1c[nH]c3ccc(F)cc13)NC(=O)CNC(=O)[C@H](CCCCN)NC(=O)CCSCc1cccc(c1)CSC[C@@H](C(N)=O)NC2=O [Compound 109] | 0.11 to 100 | 100 to 500 |  |  |
| COc1ccc(C[C@@H]2NC(=O)[C@H]([C@H](C)O)NC(=O)[C@@H]3C[C@H](F)CN3C(=O)[C@H](Cc3c[nH]c4ccc(F)cc34)NC(=O)[C@H](Cc3c[nH]c4ccc(F)cc34)NC(=O)[C@@H](C)NC(=O)[C@H](CCCCN)NC(=O)CCC(=O)NCc3ccc(cc3)CCNC(=O)[C@]3(C)CCCN3C2=O)cc1 [Compound 111] (K[dA][Trp(5-F)][Trp(5-F)][Pro(cis-4-F)][aThr]Y(Me)[αMeP]; linker N-C via X45) | 0.11 to 100 |  | 0.1 to 100 |  |
| COc1ccc(C[C@@H]2NC(=O)[C@H]([C@@H](C)O)NC(=O)[C@@H]3C[C@H](F)CN3C(=O)[C@H](Cc3c[nH]c4ccc(F)cc34)NC(=O)[C@H](Cc3c[nH]c4ccc(F)cc34)NC(=O)[C@@H](C)NC(=O)[C@H](CCCCN)NC(=O)[C@@H](NC(=O)C(C)(C)F)CC(=O)NCCOc3ccc(cc3)C[C@@H](C(N)=O)NC(=O)[C@]3(C)CCCN3C2=O)cc1 [Compound 112] (X28-DK[dA][Trp(5-F)][Trp(5-F)][Pro(cis-4-F)]TY(Me)[αMeP][AEF]-NH2; lactam 1-10) | 0.11 to 100 | 100 to 500 |  |  |
| COc1ccc(C[C@@H]2NC(=O)[C@H]([C@@H](C)O)NC(=O)[C@@H]3C[C@H](F)CN3C(=O)[C@H](Cc3c[nH]c4ccc(F)cc34)NC(=O)[C@H](Cc3c[nH]c4ccc(F)cc34)NC(=O)[C@@H](C)NC(=O)[C@H](CCCCN)NC(=O)[C@@H](NC(=O)CC(F)(F)F)CC(=O)NCCOc3ccc(cc3)C[C@@H](C(N)=O)NC(=O)[C@]3(C)CCCN3C2=O)cc1 [Compound 114] ({Propanoyl(3,3,3-F3)}-DK[dA][Trp(5-F)][Trp(5-F)][Pro(cis-4-F)]TY(Me)[αMeP][AEF]-NH2; lactam 1-10) | 21000 to 50000 | 500 to 5000 |  |  |
| COc1ccc(C[C@@H]2NC(=O)[C@H]([C@@H](C)O)NC(=O)[C@@H]3C[C@H](F)CN3C(=O)[C@H](Cc3c[nH]c4ccc(F)cc34)NC(=O)[C@H](Cc3c[nH]c4ccc(F)cc34)NC(=O)[C@@H](C)NC(=O)[C@H](CCCCN)NC(=O)[C@@H](NC(=O)CO)CC(=O)NCCOc3ccc(cc3)C[C@@H](C(N)=O)NC(=O)[C@]3(C)CCCN3C2=O)cc1 [Compound 115] (Glycolyl-DK[dA][Trp(5-F)][Trp(5-F)][Pro(cis-4-F)]TY(Me)[αMeP][AEF]-NH2; lactam 1-10) | 100 to 1000 | 500 to 5000 |  |  |
| COc1ccc(C[C@@H]2NC(=O)[C@H]([C@@H](C)O)NC(=O)[C@@H]3C[C@H](F)CN3C(=O)[C@H](Cc3c[nH]c4ccc(F)cc34)NC(=O)[C@H](Cc3c[nH]c4ccc(F)cc34)NC(=O)[C@@H](C)NC(=O)[C@H](CCCCN)NC(=O)[C@@H](NC(=O)CO)CC(=O)NCCOc3ccc(cc3)C[C@@H](C(N)=O)NC(=O)[C@]3(C)CCCN3C2=O)cc1 [Compound 116] (Glycolyl-DK[dA][Trp(5-F)][Trp(5-F)][Pro(cis-4-F)]TY(Me)[αMeP][AEF]-NH2; lactam 1-10) | 21000 to 50000 | 500 to 5000 |  |  |
| COc1ccc(C[C@@H]2NC(=O)[C@H]([C@@H](C)O)NC(=O)[C@@H]3C[C@H](F)CN3C(=O)[C@H](Cc3c[nH]c4ccc(F)cc34)NC(=O)[C@H](Cc3c[nH]c4ccc(F)cc34)NC(=O)[C@@H](C)NC(=O)[C@H](CCCCN)NC(=O)CCCCNC(=O)COc3ccc(cc3)C[C@@H](C(N)=O)NC(=O)[C@]3(C)CCCN3C2=O)cc1 [Compound 117] (K[dA][Trp(5-F)][Trp(5-F)][Pro(cis-4-F)]TY(Me)[αMeP]Y-NH2; linker N-9 via X46) | 0.11 to 100 | 500 to 5000 |  |  |
| CCC(=O)N[C@H]1CC(=O)NCCOc2ccc(cc2)C[C@@H](C(N)=O)NC(=O)[C@]2(C)CCCN2C(=O)[C@H](Cc2ccc(OC)cc2)NC(=O)[C@H]([C@@H](C)O)NC(=O)[C@@H]2C[C@H](F)CN2C(=O)[C@H](Cc2c[nH]c3ccc(F)cc23)NC(=O)[C@H](Cc2c[nH]c3ccc(F)cc23)NC(=O)[C@@H](C)NC(=O)[C@H](CCCCN)NC1=O [Compound 118] (Propionyl-DK[dA][Trp(5-F)][Trp(5-F)][Pro(cis-4-F)]TY(Me)[αMeP][AEF]-NH2; lactam 1-10) | 21000 to 50000 | 500 to 5000 |  |  |
| COc1ccc(C[C@@H]2NC(=O)[C@H]([C@@H](C)O)NC(=O)[C@@H]3C[C@H](F)CN3C(=O)[C@H](Cc3c[nH]c4ccc(F)cc34)NC(=O)[C@H](Cc3c[nH]c4ccc(F)cc34)NC(=O)[C@@H](C)NC(=O)[C@H](CCCCN)NC(=O)[C@@H](NC(=O)C(C)(C)C)CC(=O)NCCOc3ccc(cc3)C[C@@H](C(N)=O)NC(=O)[C@]3(C)CCCN3C2=O)cc1 [Compound 119] (Piv-DK[dA][Trp(5-F)][Trp(5-F)][Pro(cis-4-F)]TY(Me)[αMeP][AEF]-NH2; lactam 1-10) | 21000 to 50000 | 500 to 5000 |  |  |
| C[C@@]12CCCN1C(=O)[C@H](Cc1ccc(O)cc1)NC(=O)CCc1cccc3c1Oc1c(cccc1-3)CCNC(=O)[C@H](Cc1c[nH]c3ccc(F)cc13)NC(=O)[C@H](Cc1c[nH]c3ccc(F)cc13)NC(=O)CNC(=O)[C@H](CCCCN)NC(=O)CCSCc1cccc(c1)CSC[C@H](C(N)=O)NC2=O [Compound 120] ([Mpa]KG[Trp(5-F)][Trp(5-F)][X32]Y[αMeP][dC]-NH2; linker 1-9 via mXylylene) | 1000 to 12100 | 500 to 5000 |  |  |
| C[C@@]12CCCN1C(=O)[C@H](Cc1ccc(O)cc1)NC(=O)CN1C(=O)[C@H](N=C(c3ccccc3)c3ccccc31)NC(=O)[C@H](Cc1c[nH]c3ccc(F)cc13)NC(=O)[C@H](Cc1c[nH]c3ccc(F)cc13)NC(=O)CNC(=O)[C@H](CCCCN)NC(=O)CCSCc1cccc(c1)CSC[C@@H](C(N)=O)NC2=O [Compound 121] |  |  | 0.1 to 100 | 0.11 to 100 |
| C[C@@]12CCCN1C(=O)[C@H](Cc1ccc(O)cc1)NC(=O)CN1C(=O)[C@@H](N=C(c3ccccc3)c3ccccc31)NC(=O)[C@H](Cc1c[nH]c3ccc(F)cc13)NC(=O)[C@H](Cc1c[nH]c3ccc(F)cc13)NC(=O)CNC(=O)[C@H](CCCCN)NC(=O)CCSCc1cccc(c1)CSC[C@@H](C(N)=O)NC2=O [Compound 122] |  |  | 0.1 to 100 | 0.11 to 100 |
| COc1ccc(C[C@@H]2NC(=O)[C@H]([C@@H](C)O)NC(=O)[C@@H]3C[C@H](F)CN3C(=O)[C@H](Cc3c[nH]c4ccc(F)cc34)NC(=O)[C@H](Cc3c[nH]c4ccc(F)cc34)NC(=O)[C@@H](C)NC(=O)[C@H](CCCCN)NC(=O)[C@@H](NC(=O)C(C)C)CC(=O)NCCOc3ccc(cc3)C[C@@H](C(N)=O)NC(=O)[C@]3(C)CCCN3C2=O)cc1 [Compound 123] (Isobutyryl-DK[dA][Trp(5-F)][Trp(5-F)][Pro(cis-4-F)]TY(Me)[αMeP][AEF]-NH2; lactam 1-10) | 0.11 to 100 | 0.1 to 100 |  |  |
| COc1ccc(C[C@@H]2NC(=O)[C@H]([C@@H](C)O)NC(=O)[C@@H]3C[C@H](F)CN3C(=O)[C@H](Cc3c[nH]c4ccc(F)cc34)NC(=O)[C@H](Cc3c[nH]c4ccc(F)cc34)NC(=O)[C@@H](C)NC(=O)[C@H](CCCCN)NC(=O)[C@@H](NC(=O)C(F)(F)F)CC(=O)NCCOc3ccc(cc3)C[C@@H](C(N)=O)NC(=O)[C@]3(C)CCCN3C2=O)cc1 [Compound 124] (Tfa-DK[dA][Trp(5-F)][Trp(5-F)][Pro(cis-4-F)]TY(Me)[αMeP][AEF]-NH2; lactam 1-10) | 0.11 to 100 | 0.1 to 100 |  |  |
| C[C@@]12CCCN1C(=O)[C@H](Cc1ccc(O)cc1)NC(=O)CN1C(=O)[C@H](COc3ccccc31)NC(=O)[C@H](Cc1c[nH]c3ccc(F)cc13)NC(=O)[C@H](Cc1c[nH]c3ccc(F)cc13)NC(=O)CNC(=O)[C@H](CCCCN)NC(=O)CCSCc1cccc(c1)CSC[C@@H](C(N)=O)NC2=O [Compound 126] | 0.11 to 100 | 0.1 to 100 |  |  |
| C[C@@]12CCCN1C(=O)[C@H](Cc1ccc(O)cc1)NC(=O)CN1C(=O)[C@@H](N=C(C3CCCCC3)c3ccccc31)NC(=O)[C@H](Cc1c[nH]c3ccc(F)cc13)NC(=O)[C@H](Cc1c[nH]c3ccc(F)cc13)NC(=O)CNC(=O)[C@H](CCCCN)NC(=O)CCSCc1cccc(c1)CSC[C@@H](C(N)=O)NC2=O [Compound 129] | 0.11 to 100 | 500 to 5000 |  |  |
